Measurements taken from paper PMC10819888, “Benzimidazole-Based Derivatives as Apoptotic Antiproliferative Agents: Design, Synthesis, Docking, and Mechanistic Studies” (Molecules, 2024).

How the values were obtained:
SW-620 = test: NCI-60 five-dose assay; type: cell-based, human; settings: SW-620 (Colon Cancer), 48 h
OVCAR-4 = test: NCI-60 five-dose assay; type: cell-based, human; settings: OVCAR-4 (Ovarian Cancer), 48 h
NCI/ADR-RES = test: NCI-60 five-dose assay; type: cell-based, human; settings: NCI/ADR-RES (Ovarian Cancer), 48 h
NCI-H460 = test: NCI-60 five-dose assay; type: cell-based, human; settings: NCI-H460 (Non-Small Cell Lung Cancer), 48 h
IGROV1 = test: NCI-60 five-dose assay; type: cell-based, human; settings: IGROV1 (Ovarian Cancer), 48 h
OVCAR-3 = test: NCI-60 five-dose assay; type: cell-based, human; settings: OVCAR-3 (Ovarian Cancer), 48 h
Renal Cancer subpanel = test: NCI-60 five-dose assay, subpanel; type: cell-based, human
UO-31 = test: NCI-60 five-dose assay; type: cell-based, human; settings: UO-31 (Renal Cancer), 48 h
Ovarian Cancer subpanel = test: NCI-60 five-dose assay, subpanel; type: cell-based, human
HL-60(TB) = test: NCI-60 five-dose assay; type: cell-based, human; settings: HL-60(TB) (Leukemia), 48 h
U251 = test: NCI-60 five-dose assay; type: cell-based, human; settings: U251 (CNS Cancer), 48 h
RPMI-8226 = test: NCI-60 five-dose assay; type: cell-based, human; settings: RPMI-8226 (Leukemia), 48 h
Leukemia subpanel = test: NCI-60 five-dose assay, subpanel; type: cell-based, human; settings: Homo sapiens; Leukemia; average sensitivity of all subpanel cell lines; read-out: GI50 Subpanel MID b
BT-549 = test: NCI-60 five-dose assay; type: cell-based, human; settings: BT-549 (Breast Cancer), 48 h
NCI-H322M = test: NCI-60 five-dose assay; type: cell-based, human; settings: NCI-H322M (Non-Small Cell Lung Cancer), 48 h
SF-295 = test: NCI-60 five-dose assay; type: cell-based, human; settings: SF-295 (CNS Cancer), 48 h
SK-MEL-5 = test: NCI-60 five-dose assay; type: cell-based, human; settings: SK-MEL-5 (Melanoma), 48 h
HS 578T = test: NCI-60 five-dose assay; type: cell-based, human; settings: HS 578T (Breast Cancer), 48 h
HOP-62 = test: NCI-60 five-dose assay; type: cell-based, human; settings: HOP-62 (Non-Small Cell Lung Cancer), 48 h
SF-539 = test: NCI-60 five-dose assay; type: cell-based, human; settings: SF-539 (CNS Cancer), 48 h
MDA-MB-435 = test: NCI-60 five-dose assay; type: cell-based, human; settings: MDA-MB-435 (Melanoma), 48 h
HCT-15 = test: NCI-60 five-dose assay; type: cell-based, human; settings: HCT-15 (Colon Cancer), 48 h
NCI-H23 = test: NCI-60 five-dose assay; type: cell-based, human; settings: NCI-H23 (Non-Small Cell Lung Cancer), 48 h
SK-MEL-2 = test: NCI-60 five-dose assay; type: cell-based, human; settings: SK-MEL-2 (Melanoma), 48 h
[1] = Homo sapiens, read-out: GI50 Conc. per Cell Line
[2] = Homo sapiens, read-out: LC50 (the source's name)

Work on `CN(C)c1ccc(C=NNC(=O)c2ccc3[nH]c(-c4ccc(Cl)cc4)nc3c2)cc1` [Compound 4b, N′-(4-(Dimethylamino)benzylidene)-2-(4-chlorophenyl)-1H-benzimidazole-5-carbohydrazide] yielded a melting point of 283 to 285 °C.

In the case of `O=C(NN=Cc1ccc([N+](=O)[O-])cc1)c1ccc2[nH]c(-c3ccc(Cl)cc3)nc2c1` [Compound 4c, N′-(4-Nitrobenzylidene)-2-(4-chlorophenyl)-1H-benzimidazole-5-carbohydrazide], the GI50 (SW-620; [1]) is reported as 3.44 µM, the TGI (SW-620) is reported as 10.80 µM and the GI50 (OVCAR-4; [1]) is reported as 2.75 µM. For the same compound, the CC50 (OVCAR-4; [2]) was > 100 µM, the TGI (OVCAR-4) was 8.64 µM and the GI50 (NCI/ADR-RES; [1]) was 12.6 µM. For the same compound, the CC50 (NCI/ADR-RES; [2]) was > 100 µM, the TGI (NCI/ADR-RES) was >100 µM and the GI50 (NCI-H460; [1]) was 2.1 µM. For the same compound, the TGI (NCI-H460) was 4.49 µM, the GI50 (IGROV1; Homo sapiens, IGROV-1, read-out: GI50 Conc. per Cell Line) was 3.04 µM and the CC50 (IGROV1; Homo sapiens, IGROV-1, read-out: LC50 (the source's name)) was 52.4 µM. The TGI (IGROV1) was 11.40 µM, the GI50 (OVCAR-3; [1]) was 3.25 µM and the CC50 (OVCAR-3; [2]) was 40.9 µM. For the same compound, the TGI (OVCAR-3) was 8.23 µM, the GI50 (Renal Cancer subpanel; Homo sapiens, Renal Cancer, average sensitivity of all subpanel cell lines, read-out: GI50 Subpanel MID b) was 4.3 µM and the “GI50 Selectivity Ratio (MID a/MID b)” value (Renal Cancer subpanel; Renal Cancer subpanel) was 0.76. For the same compound, the GI50 (UO-31; [1]) was 6.05 µM, the CC50 (UO-31; [2]) was > 100 µM and the TGI (UO-31) was 38.30 µM. For the same compound, the GI50 (Ovarian Cancer subpanel; Homo sapiens, Ovarian Cancer, average sensitivity of all subpanel cell lines, read-out: GI50 Subpanel MID b) was 5.77 µM, the “GI50 Selectivity Ratio (MID a/MID b)” value (Ovarian Cancer subpanel; Ovarian Cancer subpanel) was 0.57 and the TGI (HL-60(TB)) was 5.73 µM. For the same compound, the GI50 (HL-60(TB); [1]) was 0.797 µM, the CC50 (HL-60(TB); [2]) was > 100 µM and the GI50 (U251; Homo sapiens, U-251, read-out: GI50 Conc. per Cell Line) was 2.92 µM. It also gave a CC50 (U251; Homo sapiens, U-251, read-out: LC50 (the source's name)) of 48 µM, a TGI (U251) of 10.80 µM and a GI50 (RPMI-8226; [1]) of 0.461 µM. For the same compound, the CC50 (RPMI-8226; [2]) was > 100 µM, the TGI (RPMI-8226) was 2.41 µM and the GI50 (Leukemia subpanel) was 0.55 µM. The TGI (BT-549) was 9.70 µM, the GI50 (BT-549; [1]) was 2.84 µM and the CC50 (BT-549; [2]) was 50.5 µM. For the same compound, the GI50 (NCI-H322M; [1]) was 5.04 µM, the CC50 (NCI-H322M; [2]) was > 100 µM and the TGI (NCI-H322M) was 26.40 µM. It also gave a GI50 (SF-295; [1]) of 3.4 µM, a CC50 (SF-295; [2]) of 43.8 µM and a TGI (SF-295) of 13.10 µM. For the same compound, the GI50 (SK-MEL-5; [1]) was 2.11 µM, the CC50 (SK-MEL-5; [2]) was 12.8 µM and the TGI (SK-MEL-5) was 4.78 µM. For the same compound, the TGI (HS 578T) was 24.40 µM, the GI50 (HS 578T; [1]) was 3.58 µM and the CC50 (HS 578T; [2]) was > 100 µM. The TGI (HOP-62) was 30.80 µM, the GI50 (HOP-62; [1]) was 6.42 µM and the CC50 (HOP-62; [2]) was > 100 µM. It also gave a GI50 (SF-539; [1]) of 2.73 µM, a CC50 (SF-539; [2]) of 33.8 µM and a TGI (SF-539) of 10.10 µM. The GI50 (MDA-MB-435; [1]) was 3.57 µM, the CC50 (MDA-MB-435; [2]) was 47.6 µM and the TGI (MDA-MB-435) was 12.20 µM. For the same compound, the TGI (HCT-15) was 13.30 µM, the GI50 (HCT-15; [1]) was 2.6 µM and the CC50 (HCT-15; [2]) was > 100 µM. The GI50 (NCI-H23; [1]) was 1.85 µM, the CC50 (NCI-H23; [2]) was 67.6 µM and the TGI (NCI-H23) was 11.50 µM. It also gave a GI50 (SK-MEL-2; [1]) of 5.1 µM and a TGI (SK-MEL-2) of 21.90 µM.

For `O=C(NN=Cc1ccc(F)cc1)c1ccc2[nH]c(-c3ccc(Cl)cc3)nc2c1` [Compound 4d, N′-(4-Fluorobenzylidene)-2-(4-chlorophenyl)-1H-benzimidazole-5-carbohydrazide], the melting point was 285 to 287 °C.

For `O=C(NN=Cc1ccc(Cl)cc1Cl)c1ccc2[nH]c(-c3ccc(Cl)cc3)nc2c1` [Compound 4f, N′-(2,4-Dichlorobenzylidene)-2-(4-chlorophenyl)-1H-benzimidazole-5-carbohydrazide], the melting point was 294 to 297 °C.

Work on `O=C(N/N=C/c1ccc(O)cc1)c1ccc2[nH]c(-c3ccc(Cl)cc3)nc2c1` [Compound 4i, N′-(4-Hydroxybenzylidene)-2-(4-chlorophenyl)-1H-benzimidazole-5-carbohydrazide] yielded a melting point of 263 to 265 °C.

`CCn1c(-c2ccc3[nH]c(-c4ccc(Cl)cc4)nc3c2)n[nH]c1=S` [Compound 6, 4-ethyl-5-(2-(4-chlorophenyl)-1H-benzimidazol-5-yl)-2,4-dihydro-3H-1,2,4triazole-3-thione] showed a melting point of 292 to 294 °C.
